From PubChem BioAssay (NCI) come the findings set out here.

What all share (experiment): inhibition of tumour cell growth, NCI panel, 48 h
The test system of experiment [1] is DU-145 prostate.
Experiment [2] has as its system EKVX NSCLC.
The test system of experiment [3] is COLO 205 colon.
Experiment [4] concerns UO-31 renal.
For experiment [5], the system named is MOLT-4 leukemia.
For experiment [6], the system named is NCI-H522 lung.
The subject of experiment [7] is A549 NSCLC.
Experiment [8] relates to MCF7 breast.

Each structure is given as a SMILES string.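 Protocol summary: plate cells (96-well), add compound at 5 concentrations, incubate 48 h, interpolate endpoints linearly. The concentration for 50% growth inhibition is given as GI50. TGI marks complete inhibition of growth.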 A value given as a limit tells only on which side of the number the result lay.

Regarding `Nc1c(C(=O)N/N=C/c2ccc(-c3ccc(Cl)cc3)o2)cnn1-c1ccnc2c(C(F)(F)F)cccc12`, the GI50 is above 100 µM in experiment [1]; above 100 µM in experiment [2]; above 100 µM in experiment [3]; above 100 µM in experiment [4]; 50.8 µM in experiment [5]; above 100 µM in experiment [6]. The GI50 in experiment [7] is 83.9 µM; in experiment [8], above 100 µM. The TGI in experiment [1], in experiment [2], in experiment [3], in experiment [4], in experiment [5] and in experiment [6] was above 100 µM each time. The TGI in experiment [7] and in experiment [8] was above 100 µM throughout.
As for `O=C(O)c1c(-c2nccc3ccccc23)[nH]c(-c2ccccc2)c1S(=O)(=O)O`, the TGI in experiment [1], in experiment [2], in experiment [3], in experiment [4], in experiment [5] and in experiment [6] was above 100 µM each time. Besides, the TGI in experiment [7] and in experiment [8] was above 100 µM each time.
As for `CCN1C(=O)N(CC)C2C1NC(=S)N2/N=C/C=C/c1cccs1` (stereo not drawn), the GI50 in experiment [1] was 0.341 µM; in experiment [2], 0.464 µM; in experiment [3] it was 0.267 µM; in experiment [4], 0.923 µM; in experiment [5] it was 0.62 µM; in experiment [6], 0.214 µM. For the same compound, the GI50 in experiment [7] was 0.508 µM; in experiment [8], 0.26 µM. Also, the TGI in experiment [1] was above 100 µM; in experiment [2], above 100 µM; in experiment [3], 1.17 µM; in experiment [4], above 100 µM; in experiment [5], above 100 µM; in experiment [6], 1.69 µM. The TGI in experiment [7] and in experiment [8] was above 100 µM throughout.
Regarding `CCCCCc1c(C)[nH]c(/C=C2\N=C(c3ccc[nH]3)C=C2CC)c1C`, the GI50 in experiment [1] was below 0.01 µM; in experiment [2], 0.0216 µM; in experiment [3] it was 0.0188 µM; in experiment [4], 0.0134 µM; in experiment [5] it was below 0.01 µM; in experiment [6], below 0.01 µM. Further, the GI50 in experiment [7] was below 0.0125 µM; in experiment [8], 0.0208 µM. Also, the TGI in experiment [1] was determined as 1.19 µM; in experiment [2], 0.364 µM; in experiment [3], 0.134 µM; in experiment [4] it was 0.0357 µM; in experiment [5], 0.108 µM; in experiment [6], 0.106 µM. The TGI in experiment [7] was 0.0846 µM; in experiment [8] it was 0.106 µM.
In the case of `c1ccc2c3ccn4cc5c(cc4c-3nc2c1)CCCC5`, the GI50 in experiment [1] is 2.31 µM; in experiment [2] it was 3.88 µM; in experiment [3] it was 2.37 µM; in experiment [4] it was 14.6 µM; in experiment [5], 2.45 µM; in experiment [7], 9.19 µM. In experiment [8], the GI50 was 2.5 µM. For the same compound, the TGI in experiment [1] amounted to 10.5 µM; in experiment [2], 19.5 µM; in experiment [3], 6.16 µM; in experiment [4], 29.8 µM; in experiment [5], 12.5 µM; in experiment [6] it was 5.75 µM. Further, the figures for the TGI in experiment [7] and in experiment [8] were 32.6 µM and 11 µM, respectively.
`CCCS(=O)(=O)Nc1ccc(Nc2c3ccccc3nc3ccccc23)c(OC)c1`: the TGI was found to be 4.54 µM in experiment [1]; 28.8 µM in experiment [2]; 20.8 µM in experiment [3]; 6.47 µM in experiment [4]; 0.231 µM in experiment [5]; 5.33 µM in experiment [6]. Further, the TGI in experiment [7] amounted to 5.99 µM; in experiment [8], 16.3 µM.
`COc1cc(NC(C)CCCN)c2nccc(C)c2c1OC` (stereo not drawn): the GI50 in experiment [1] is 15.3 µM; in experiment [2], 18 µM; in experiment [3], 3.37 µM; in experiment [4] it was 17.6 µM; in experiment [5], 15.3 µM; in experiment [6], 5.28 µM. In addition, the GI50 in experiment [7] is 22.8 µM; in experiment [8], 0.372 µM. In addition, the TGI came to 28.6 µM in experiment [1]; 33.8 µM in experiment [2]; 11.8 µM in experiment [3]; 34.4 µM in experiment [4]; 42.1 µM in experiment [5]; 19.6 µM in experiment [6]. Moreover, the TGI in experiment [7] worked out at 58.5 µM; in experiment [8], 1.71 µM.
`COc1ccc(-c2cc(-c3cccn3C)c(C#N)c(N)n2)cc1OC`: the GI50 in experiment [1] was 91.6 µM; in experiment [2], above 100 µM; in experiment [3], above 100 µM; in experiment [4] it was 98.3 µM; in experiment [5], 46.8 µM; in experiment [6], 40.4 µM. Moreover, the GI50 was above 100 µM in experiment [7] and 94.3 µM in experiment [8]. The TGI in experiment [1], in experiment [2], in experiment [3], in experiment [4], in experiment [5] and in experiment [6] was above 100 µM each time. In addition, the TGI in experiment [7] and in experiment [8] was above 100 µM each time.
For `O=c1[nH]c2cc(Cl)ccc2n1C1CCN(CCCC(c2ccc(F)cc2)c2ccc(F)cc2)CC1`, the GI50 in experiment [1] is 1.82 µM; in experiment [2] it was 1.45 µM; in experiment [3], 1.23 µM; in experiment [4], 1 µM; in experiment [5], 2.43 µM; in experiment [6], 1.82 µM. Also, the GI50 in experiment [7] is 1.65 µM; in experiment [8], 1.35 µM. The TGI is 3.32 µM in experiment [1]; 3.38 µM in experiment [2]; 2.6 µM in experiment [3]; 2.38 µM in experiment [4]; 7.15 µM in experiment [5]; 3.64 µM in experiment [6]. For the same compound, the values for the TGI in experiment [7] and in experiment [8] were 3.39 µM and 2.84 µM, respectively.
With `Cc1[nH]n(-c2cccc(Cl)c2)c(=O)c1/C=C1\C=Nc2ccc(Br)cc21`, the GI50 in experiment [1] is 5.71 µM; in experiment [2] it was 5.45 µM; in experiment [3] it was 2 µM; in experiment [4], 2.08 µM; in experiment [5] it was 3.12 µM; in experiment [6] it was 3.67 µM. Further, the GI50 in experiment [7] was 2.27 µM; in experiment [8] it was 5.95 µM. Further, the TGI was above 100 µM in experiment [1]; 73.3 µM in experiment [2]; 4.29 µM in experiment [3]; 6.57 µM in experiment [4]; 10.9 µM in experiment [5]; 17.5 µM in experiment [6]. The TGI was 5.68 µM in experiment [7] and above 100 µM in experiment [8].
